Experimental data reported in publication PMC6827146, “Short-Term Low Temperature Induces Nitro-Oxidative Stress that Deregulates the NADP-Malic Enzyme Function by Tyrosine Nitration in Arabidopsis thaliana” (Antioxidants, 2019).

Biological target: T1, cytosolic NADP-ME2 (recombinant Arabidopsis NADP-malic enzyme 2) (Arabidopsis thaliana, UniProt Q9LYG3)
T1 construct: full-length cDNA (1785 bp PCR product) in pALEXb; E. coli
T1 sequence (Q9LYG3 1-588): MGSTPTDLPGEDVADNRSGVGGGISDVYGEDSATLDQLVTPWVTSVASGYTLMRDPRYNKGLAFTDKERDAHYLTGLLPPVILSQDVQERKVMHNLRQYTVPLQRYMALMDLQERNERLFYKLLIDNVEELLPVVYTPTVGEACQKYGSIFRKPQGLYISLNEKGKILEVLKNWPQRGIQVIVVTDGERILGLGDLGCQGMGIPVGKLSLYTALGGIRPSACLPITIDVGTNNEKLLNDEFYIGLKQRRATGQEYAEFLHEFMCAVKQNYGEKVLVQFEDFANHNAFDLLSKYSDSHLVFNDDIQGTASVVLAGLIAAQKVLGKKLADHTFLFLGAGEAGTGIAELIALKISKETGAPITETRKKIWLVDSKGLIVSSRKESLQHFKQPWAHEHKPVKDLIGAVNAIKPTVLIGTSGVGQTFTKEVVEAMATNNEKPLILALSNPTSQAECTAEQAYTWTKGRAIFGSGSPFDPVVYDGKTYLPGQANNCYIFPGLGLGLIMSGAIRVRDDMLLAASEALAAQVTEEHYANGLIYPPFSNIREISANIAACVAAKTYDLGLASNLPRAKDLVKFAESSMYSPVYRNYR
Assay: spectrophotometric NADP reduction at […] nm after preincubation with peroxynitrite donor
Assay type: biochemical
Settings: covalent (Tyr-73 nitration); peroxynitrite generated in situ from donor SIN-1, so concentration is that of the donor; 37 °C, 1 h preincubation; assay pH 7.6, 25 °C, 2 mM MgCl2, 0.8 mM NADP, 1 mM L-mal

% inhibition with 5 mM SIN-1 (donor): 56%
Substance: ONOO^−
